Data: patent US20230085307A1, “PYRIDAZINONE COMPOUND AND HERBICIDE” (NISSAN CHEMICAL CORPORATION, priority 2019, published 2023)

Legend:
[1] = tested on: southern crabgrass; test: Test Example 4: herbicidal effect by soil treatment (Table 19, symbol F); assay type: in vivo, southern crabgrass (Digitaria ciliaris); settings: amount of applied herbicide 320 g/ha
Procedure, shortened: (§1)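 In this soil treatment, the formulated compound reached the seeds only through the soil: seeds were buried about 1.5 cm deep in sterilized diluvial soil, then the diluted emulsion was sprayed over the surface. After three weeks at 25° C. to 30° C. in a greenhouse, effects were graded on criteria from an earlier test.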

[2] = tested on: redroot pigweed; test: Test Example 4: herbicidal effect by soil treatment (Table 19, symbol N); assay type: in vivo, redroot pigweed (Amaranthus retroflexus); settings: amount of applied herbicide 320 g/ha
Procedure, shortened: as §1

[3] = tested on: rice flat sedge; test: Test Example 3: herbicidal effect by foliage application, Wagner pot (Table 18, symbol E); assay type: in vivo, rice flat sedge (Cyperus iria); settings: for Herbicidal effect on E (rice flat sedge), foliage application: amount of applied herbicide 320 g/ha
Procedure, shortened: (§2)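 Plants were sown in alluvial soil held under 0.1–0.5 cm standing water and grown 14 days in a greenhouse at 25–30 °C. An emulsifiable formulation, water-diluted to the set dose, was then sprayed onto the foliage, and effects were scored three weeks later using previously defined criteria.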

[4] = tested on: windgrass; test: Test Example 5: herbicidal effect by foliage application, plastic box (Table 20, symbol L); assay type: in vivo, windgrass (Apera spica-venti); settings: foliage application, 320 g/ha, three weeks after application
Procedure, shortened: (§3)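 Plants were sown into sterilized diluvial soil under about 1.5 cm cover and kept in a greenhouse at 25° C. to 30° C. Fourteen days on, foliage received an even spray of the diluted emulsion. Herbicidal or crop effect was judged three weeks afterwards.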

[5] = tested on: lambsquarters; test: Test Example 5: herbicidal effect by foliage application, plastic box (Table 20, symbol O); assay type: in vivo, lambsquarters (Chenopodium album); settings: foliage application, 320 g/ha, three weeks after application
Procedure, shortened: as §3

[6] = tested on: lambsquarters; test: Test Example 4: herbicidal effect by soil treatment (Table 19, symbol O); assay type: in vivo, lambsquarters (Chenopodium album); settings: amount of applied herbicide 320 g/ha
Procedure, shortened: as §1

[7] = tested on: windgrass; test: Test Example 4: herbicidal effect by soil treatment (Table 19, symbol L); assay type: in vivo, windgrass (Apera spica-venti); settings: amount of applied herbicide 320 g/ha
Procedure, shortened: as §1

[8] = tested on: barnyard grass; test: Test Example 5: herbicidal effect by foliage application, plastic box (Table 20, symbol H); assay type: in vivo, barnyard grass (Echinochloa crus-galli); settings: foliage application, 320 g/ha, three weeks after application
Procedure, shortened: as §3

[9] = tested on: southern crabgrass; test: Test Example 5: herbicidal effect by foliage application, plastic box (Table 20, symbol F); assay type: in vivo, southern crabgrass (Digitaria ciliaris); settings: foliage application, 320 g/ha, three weeks after application
Procedure, shortened: as §3

[10] = tested on: green foxtail; test: Test Example 5: herbicidal effect by foliage application, plastic box (Table 20, symbol G); assay type: in vivo, green foxtail (Setaria viridis); settings: foliage application, 320 g/ha, three weeks after application
Procedure, shortened: as §3

[11] = tested on: velvetleaf; test: Test Example 4: herbicidal effect by soil treatment (Table 19, symbol M); assay type: in vivo, velvetleaf (Abutilon theophrasti); settings: amount of applied herbicide 320 g/ha
Procedure, shortened: as §1

[12] = tested on: oval-leafed pondweed; test: Test Example 1: herbicidal activity, application before weed generation under submerged conditions (Table 16, symbol C); assay type: in vivo, oval-leafed pondweed (Monochoria vaginalis); settings: amount of applied herbicide 320 g/ha
Procedure, shortened: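 Submerged Wagner pots (alluvial soil, 4 cm water) sown with weed seeds and planted with 2.5-leaf rice seedlings; emulsifiable concentrate diluted in water applied to water surface on sowing day. Held in greenhouse at 25-30 °C; injury scored 0-5 by herbicidal rate after three weeks.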

[13] = tested on: Chinese sprangletop; test: Test Example 3: herbicidal effect by foliage application, Wagner pot (Table 18, symbol D); assay type: in vivo, chinese sprangletop (Leptochloa chinensis); settings: for Herbicidal effect on D (Chinese sprangletop), foliage application: amount of applied herbicide 320 g/ha
Procedure, shortened: as §2

[14] = tested on: persian speedwell; test: Test Example 5: herbicidal effect by foliage application, plastic box (Table 20, symbol R); assay type: in vivo, Persian speedwell (Veronica persica); settings: foliage application, 320 g/ha, three weeks after application
Procedure, shortened: as §3

[15] = tested on: oval-leafed pondweed; test: Test Example 2: herbicidal activity, application during weed generation under submerged conditions (Table 17, symbol C); assay type: in vivo, oval-leafed pondweed (Monochoria vaginalis); settings: AAH 320 g/ha; application during weed generation, submerged conditions
Procedure, shortened: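 Effect on each weed is rated three weeks post-treatment, using the same scoring criteria as the preceding test. Plants grow from mixed-sown seed in flooded alluvial soil (4 cm water) at 25° C. to 30° C., and are treated at one to two leaves with diluted emulsion dropped onto the water.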

SMILES | F: southern crabgrass, herbicidal effect grade [1] | N: redroot pigweed, herbicidal effect grade [2] | herbicidal effect on rice flat sedge (E) ([3]; 320 g/ha) | herbicidal effect on windgrass (L) [4] | herbicidal effect on lambsquarters (O) [5] | O: lambsquarters, herbicidal effect grade [6] | L: windgrass, herbicidal effect grade [7] | herbicidal effect on barnyard grass (H) [8] | herbicidal effect on southern crabgrass (F) [9] | herbicidal effect on green foxtail (G) [10] | M: velvetleaf, herbicidal effect grade [11] | Herbicidal effect, C: oval-leafed pondweed [12] | herbicidal effect on Chinese sprangletop (D) ([13]; 320 g/ha) | herbicidal effect on persian speedwell (R) [14] | herbicidal effect rating, C: oval-leafed pondweed [15] | Herbicidal effect on E (rice flat sedge), foliage application [3] | Herbicidal effect on D (Chinese sprangletop), foliage application [13]
CCOc1ccccc1-c1sc2cc(C)c(C)cc2c1-c1c(O)c(C)nn(C)c1=O [5-094] | 4 (Herbicidal rate of 70% or more and less than 90%) | 3 (Herbicidal rate of 40% or more and less than 70%) | 4 (Herbicidal rate of 70% or more and less than 90%) | 4 (Herbicidal rate of 70% or more and less than 90%) | 4 (Herbicidal rate of 70% or more and less than 90%) | 3 (Herbicidal rate of 40% or more and less than 70%) | 3 (Herbicidal rate of 40% or more and less than 70%) | 5 (Herbicidal rate of 90% or more (almost completely withered)) | 5 (Herbicidal rate of 90% or more (almost completely withered)) | 5 (Herbicidal rate of 90% or more (almost completely withered)) | 1 (Herbicidal rate of 5% or more and less than 20%) | 4 (Herbicidal rate of 70% or more and less than 90%) | 3 (Herbicidal rate of 40% or more and less than 70%) | 5 (Herbicidal rate of 90% or more (almost completely withered)) | 3 (Herbicidal rate of 40% or more and less than 70%) |  | 
COCCOc1ccc(-c2oc3ccccc3c2-c2c(O)c(C)nn(C)c2=O)cc1 [Compound No. 8-007, 5-hydroxy-4-(2-(4-(2-methoxyethoxy)phenyl)benzofuran-3-yl)-2,6-dimethylpyridazin-3-(2H)-one] | 5 (Herbicidal rate of 90% or more (almost completely withered)) | 5 (Herbicidal rate of 90% or more (almost completely withered)) |  | 0 (Herbicidal rate of 5% or less (almost no effect)) | 4 (Herbicidal rate of 70% or more and less than 90%) | 4 (Herbicidal rate of 70% or more and less than 90%) | 0 (Herbicidal rate of 5% or less (almost no effect)) | 5 (Herbicidal rate of 90% or more (almost completely withered)) | 5 (Herbicidal rate of 90% or more (almost completely withered)) | 5 (Herbicidal rate of 90% or more (almost completely withered)) | 3 (Herbicidal rate of 40% or more and less than 70%) | 4 (Herbicidal rate of 70% or more and less than 90%) |  | 5 (Herbicidal rate of 90% or more (almost completely withered)) | 3 (Herbicidal rate of 40% or more and less than 70%) | 5 (Herbicidal rate of 90% or more (almost completely withered)) | 3 (Herbicidal rate of 40% or more and less than 70%)
COc1ccc(-c2oc3ccc(F)cc3c2-c2c(O)c(C)nn(C)c2=O)cc1 [Compound No. 9-020, 4-(5-fluoro-2-(4-methoxyphenyl)benzofuran-3-yl)-5-hydroxy-2,6-dimethylpyridazin-3(2H)-one] | 4 (Herbicidal rate of 70% or more and less than 90%) | 5 (Herbicidal rate of 90% or more (almost completely withered)) |  | 5 (Herbicidal rate of 90% or more (almost completely withered)) | 5 (Herbicidal rate of 90% or more (almost completely withered)) | 0 (Herbicidal rate of 5% or less (almost no effect)) | 2 (Herbicidal rate of 20% or more and less than 40%) | 5 (Herbicidal rate of 90% or more (almost completely withered)) | 4 (Herbicidal rate of 70% or more and less than 90%) | 5 (Herbicidal rate of 90% or more (almost completely withered)) | 2 (Herbicidal rate of 20% or more and less than 40%) | 5 (Herbicidal rate of 90% or more (almost completely withered)) |  | 5 (Herbicidal rate of 90% or more (almost completely withered)) | 3 (Herbicidal rate of 40% or more and less than 70%) | 5 (Herbicidal rate of 90% or more (almost completely withered)) | 4 (Herbicidal rate of 70% or more and less than 90%)
Cc1ccc2oc(-c3ccc4c(c3)OCCO4)c(-c3c(O)c(C)nn(C)c3=O)c2c1 [9-012] | 2 (Herbicidal rate of 20% or more and less than 40%) | 3 (Herbicidal rate of 40% or more and less than 70%) |  | 2 (Herbicidal rate of 20% or more and less than 40%) | 3 (Herbicidal rate of 40% or more and less than 70%) | 3 (Herbicidal rate of 40% or more and less than 70%) | 0 (Herbicidal rate of 5% or less (almost no effect)) | 3 (Herbicidal rate of 40% or more and less than 70%) | 3 (Herbicidal rate of 40% or more and less than 70%) | 2 (Herbicidal rate of 20% or more and less than 40%) | 2 (Herbicidal rate of 20% or more and less than 40%) | 5 (Herbicidal rate of 90% or more (almost completely withered)) |  | 5 (Herbicidal rate of 90% or more (almost completely withered)) | 5 (Herbicidal rate of 90% or more (almost completely withered)) | 5 (Herbicidal rate of 90% or more (almost completely withered)) | 0 (Herbicidal rate of 5% or less (almost no effect))
C=CCOc1ccc(-c2oc3ccccc3c2-c2c(O)c(C)nn(C)c2=O)cc1 [8-004] | 4 (Herbicidal rate of 70% or more and less than 90%) | 5 (Herbicidal rate of 90% or more (almost completely withered)) |  | 4 (Herbicidal rate of 70% or more and less than 90%) | 3 (Herbicidal rate of 40% or more and less than 70%) | 2 (Herbicidal rate of 20% or more and less than 40%) | 0 (Herbicidal rate of 5% or less (almost no effect)) | 3 (Herbicidal rate of 40% or more and less than 70%) | 4 (Herbicidal rate of 70% or more and less than 90%) | 3 (Herbicidal rate of 40% or more and less than 70%) | 2 (Herbicidal rate of 20% or more and less than 40%) | 4 (Herbicidal rate of 70% or more and less than 90%) |  | 5 (Herbicidal rate of 90% or more (almost completely withered)) | 3 (Herbicidal rate of 40% or more and less than 70%) | 4 (Herbicidal rate of 70% or more and less than 90%) | 3 (Herbicidal rate of 40% or more and less than 70%)
